Target: purified human MMP-12 enzyme (Homo sapiens, UniProt P39900)
Assay: MMP-12 FRET assay
Type: biochemical
Details: substrate 20 μM, room temperature
Procedure, shortened: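 Initial fluorescence rate (325/395 nm) of cleavage of MCA-Pro-Leu-Gly-Leu-Dpa(DNP)-Ala-Arg, 20 μM final, was followed for 30 min at room temperature after a 30 min enzyme–compound preincubation. Buffer: 50 mM HEPES pH 7.4, 100 mM NaCl, 5 mM CaCl2, 0.005% Brij-35, with 10% final DMSO. IC50 came from a Hill-type fit of rate versus inhibitor concentration.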

purified human MMP-12 enzyme, sequence (P39900 106-470): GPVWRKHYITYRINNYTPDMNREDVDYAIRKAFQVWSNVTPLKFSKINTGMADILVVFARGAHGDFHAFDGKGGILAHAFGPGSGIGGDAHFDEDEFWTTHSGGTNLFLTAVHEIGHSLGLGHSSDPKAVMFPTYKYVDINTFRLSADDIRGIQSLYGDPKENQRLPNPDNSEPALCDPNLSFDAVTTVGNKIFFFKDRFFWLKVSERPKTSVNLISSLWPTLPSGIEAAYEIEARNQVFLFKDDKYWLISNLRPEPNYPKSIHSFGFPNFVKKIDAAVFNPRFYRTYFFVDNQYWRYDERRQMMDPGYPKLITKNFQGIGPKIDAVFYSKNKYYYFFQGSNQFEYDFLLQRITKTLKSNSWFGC

| Compound | IC50 |
| --- | --- |
| CC(C)Cn1cc(-c2ccc3c(c2)oc2ccc(S(=O)(=O)N[C@@H](C(=O)O)C(C)C)cc23)cn1 [Compound 173, (R)-2-(7-(1-isobutyl-1H-pyrazol-4-yl)dibenzo[b,d]furan-2-sulfonamido)-3-methylbutanoic acid] | 80 nM |
| Cc1nc(-c2ccccc2)sc1-c1ccc2c(c1)oc1ccc(S(=O)(=O)N[C@@H](C(=O)O)C(C)C)cc12 [Compound 176, (R)-3-methyl-2-(7-(4-methyl-2-phenylthiazol-5-yl)dibenzo[b,d]furan-2-sulfonamido)butanoic acid] | 97 nM |
| CC(C)[C@H](NS(=O)(=O)c1ccc2c(c1)oc1ccc(-c3csc(Cl)n3)cc12)C(=O)O [Compound 180, (S)-2-(8-(2-chlorothiazol-4-yl)dibenzo[b,d]furan-3-sulfonamido)-3-methylbutanoic acid] | < 1.5 nM |
| CC(C)[C@H](NS(=O)(=O)c1ccc2c(c1)sc1cc(-c3ccc(Cl)o3)ccc12)C(=O)O [Compound 182, (S)-2-(7-(5-chlorofuran-2-yl)dibenzo[b,d]thiophene-3-sulfonamido)-3-methylbutanoic acid] | < 1.5 nM |
| CC(C)[C@H](NS(=O)(=O)c1ccc2c(c1)oc1cc(C(=N)NO)ccc12)C(=O)O [Compound 186, (S)-2-(7-(N-hydroxycarbamimidoyl)dibenzo[b,d]furan-3-sulfonamido)-3-methylbutanoic acid] | 1.9 nM |
| CC(C)[C@H](NS(=O)(=O)c1ccc2c(c1)oc1cc(-c3noc(C4CC4)n3)ccc12)C(=O)O [Compound 187, (S)-2-(7-(5-cyclopropyl-1,2,4-oxadiazol-3-yl)dibenzo[b,d]furan-3-sulfonamido)-3-methylbutanoic acid] | 5.5 nM |
| CC(C)[C@@H](NS(=O)(=O)c1ccc2oc3cc(-c4noc(CC(C)(C)C)n4)ccc3c2c1)C(=O)O [Compound 189, (R)-3-methyl-2-(7-(5-neopentyl-1,2,4-oxadiazol-3-yl)dibenzo[b,d]furan-2-sulfonamido)butanoic acid] | 4.5 nM |
| CC(C)[C@@H](NS(=O)(=O)c1ccc2oc3cc(-c4noc(C5CCCCC5)n4)ccc3c2c1)C(=O)O [Compound 192, (R)-2-(7-(5-cyclohexyl-1,2,4-oxadiazol-3-yl)dibenzo[b,d]furan-2-sulfonamido)-3-methylbutanoic acid] | 7.2 nM |
| CC(C)[C@H](NS(=O)(=O)c1ccc2c(c1)oc1ccc(-c3ccc4oc5ccccc5c4c3)cc12)C(=O)O [Compound 195, (S)-2-(2,2′-bidibenzo[b,d]furan-7-sulfonamido)-3-methylbutanoic acid] | 7.3 nM |
| CCc1ccc(-c2ccc3oc4cc(S(=O)(=O)N[C@H](C(=O)O)C(C)C)ccc4c3c2)s1 [Compound 196, (S)-2-(8-(5-ethylthiophen-2-yl)dibenzo[b,d]furan-3-sulfonamido)-3-methylbutanoic acid] | < 1.5 nM |
| Cc1nc(-c2ccc(-c3ccc4oc5cc(S(=O)(=O)N[C@H](C(=O)O)C(C)C)ccc5c4c3)s2)no1 [Compound 199, (S)-3-methyl-2-(8-(5-(5-methyl-1,2,4-oxadiazol-3-yl)thiophen-2-yl)dibenzo[b,d]furan-3-sulfonamido)butanoic acid] | < 1.5 nM |
| CC(C)[C@H](NS(=O)(=O)c1ccc2c(c1)oc1ccc(-c3nc4ccc(Cl)cc4s3)cc12)C(=O)O [Compound 203, (S)-2-(8-(6-chlorobenzo[d]thiazol-2-yl)dibenzo[b,d]furan-3-sulfonamido)-3-methylbutanoic acid] | 4.1 nM |
| CC(C)[C@H](NS(=O)(=O)c1ccc2c(c1)oc1ccc(-c3c(C(F)(F)F)n[nH]c3-c3ccccc3)cc12)C(=O)O [Compound 206, (S)-3-methyl-2-(8-(5-phenyl-3-(trifluoromethyl)-1H-pyrazol-4-yl)dibenzo[b,d]furan-3-sulfonamido)butanoic acid] | 110 nM |
| CC(C)[C@H](NS(=O)(=O)c1ccc2c(c1)oc1ccc(-c3ccc(-c4nnn[nH]4)s3)cc12)C(=O)O [Compound 207, (S)-2-(8-(5-(1H-tetrazol-5-yl)thiophen-2-yl)dibenzo[b,d]furan-3-sulfonamido)-3-methylbutanoic acid] | 8.4 nM |
| COc1ccc2nc(-c3ccc4oc5cc(S(=O)(=O)N[C@H](C(=O)O)C(C)C)ccc5c4c3)sc2c1 [Compound 208, (S)-2-(8-(6-methoxybenzo[d]thiazol-2-yl)dibenzo[b,d]furan-3-sulfonamido)-3-methylbutanoic acid] | 2.7 nM |

Results, then the compound that gave them:

| IC50 | Compound |
| --- | --- |
| 227 nM | Cc1nn(C)c(C)c1-c1ccc2c(c1)oc1ccc(S(=O)(=O)N[C@@H](C(=O)O)C(C)C)cc12 [Compound 174, (R)-3-methyl-2-(7-(1,3,5-trimethyl-1H-pyrazol-4-yl)dibenzo[b,d]furan-2-sulfonamido)butanoic acid] |
| 12 nM | CC(C)[C@@H](NS(=O)(=O)c1ccc2oc3cc(-c4cnn(Cc5ccccc5)c4)ccc3c2c1)C(=O)O [Compound 175, (R)-2-(7-(1-benzyl-1H-pyrazol-4-yl)dibenzo[b,d]furan-2-sulfonamido)-3-methylbutanoic acid] |
| 740 nM | Cc1nc(-c2ccc(C(F)(F)F)cc2)sc1-c1ccc2c(c1)oc1ccc(S(=O)(=O)N[C@@H](C(=O)O)C(C)C)cc12 [Compound 177, (R)-3-methyl-2-(7-(4-methyl-2-(4-(trifluoromethyl)phenyl)thiazol-5-yl)dibenzo[b,d]furan-2-sulfonamido)butanoic acid] |
| < 1.5 nM | CC(C)[C@H](NS(=O)(=O)c1ccc2c(c1)oc1ccc(-c3cnc(Cl)s3)cc12)C(=O)O [Compound 179, (S)-2-(8-(2-chlorothiazol-5-yl)dibenzo[b,d]furan-3-sulfonamido)-3-methylbutanoic acid] |
| < 1.5 nM | CC(C)[C@H](NS(=O)(=O)c1ccc2c(c1)oc1cc(-c3cnc(Cl)s3)ccc12)C(=O)O [Compound 181, (S)-2-(7-(2-chlorothiazol-5-yl)dibenzo[b,d]furan-3-sulfonamido)-3-methylbutanoic acid] |
| 8.6 nM | CC(C)[C@H](NS(=O)(=O)c1ccc2c(c1)oc1cc(-c3noc(-c4ccc(F)cc4)n3)ccc12)C(=O)O [Compound 188, (S)-2-(7-(5-(4-fluorophenyl)-1,2,4-oxadiazol-3-yl)dibenzo[b,d]furan-3-sulfonamido)-3-methylbutanoic acid] |
| 2.2 nM | CC(C)[C@@H](NS(=O)(=O)c1ccc2oc3cc(-c4noc(C5CCCC5)n4)ccc3c2c1)C(=O)O [Compound 190, (R)-2-(7-(5-cyclopentyl-1,2,4-oxadiazol-3-yl)dibenzo[b,d]furan-2-sulfonamido)-3-methylbutanoic acid] |
| 3.3 nM | CC(C)[C@@H](NS(=O)(=O)c1ccc2oc3cc(-c4noc(CC5CCCC5)n4)ccc3c2c1)C(=O)O [Compound 191, (R)-2-(7-(5-(cyclopentylmethyl)-1,2,4-oxadiazol-3-yl)dibenzo[b,d]furan-2-sulfonamido)-3-methylbutanoic acid] |
| < 1.5 nM | CC(C)[C@H](NS(=O)(=O)c1ccc2c(c1)sc1cc(-c3ccco3)ccc12)C(=O)O [Compound 193, (S)-2-(7-(furan-2-yl)dibenzo[b,d]thiophene-3-sulfonamido)-3-methylbutanoic acid] |
| 4.6 nM | CC(C)[C@H](NS(=O)(=O)c1ccc2c(c1)oc1ccc(-c3nc4ccccc4o3)cc12)C(=O)O [Compound 194, (S)-2-(8-(benzo[d]oxazol-2-yl)dibenzo[b,d]furan-3-sulfonamido)-3-methylbutanoic acid] |
| < 1.5 nM | CCCc1ccc(-c2ccc3oc4cc(S(=O)(=O)N[C@H](C(=O)O)C(C)C)ccc4c3c2)s1 [Compound 197, (S)-3-methyl-2-(8-(5-propylthiophen-2-yl)dibenzo[b,d]furan-3-sulfonamido)butanoic acid] |
| 5.6 nM | CC(C)[C@H](NS(=O)(=O)c1ccc2c(c1)oc1ccc(-c3ccc(C(C)(C)C)o3)cc12)C(=O)O [Compound 198, (S)-2-(8-(5-tert-butylfuran-2-yl)dibenzo[b,d]furan-3-sulfonamido)-3-methylbutanoic acid] |
| < 1.5 nM | CC(C)[C@H](NS(=O)(=O)c1ccc2c(c1)oc1ccc(-c3nc(C(F)(F)F)c(Cl)s3)cc12)C(=O)O [Compound 200, (S)-2-(8-(5-chloro-4-(trifluoromethyl)thiazol-2-yl)dibenzo[b,d]furan-3-sulfonamido)-3-methylbutanoic acid] |
| < 1.5 nM | Cc1nc(C)c(-c2ccc3oc4cc(S(=O)(=O)N[C@H](C(=O)O)C(C)C)ccc4c3c2)s1 [Compound 201, (S)-2-(8-(2,4-dimethylthiazol-5-yl)dibenzo[b,d]furan-3-sulfonamido)-3-methylbutanoic acid] |
| 13 nM | Cc1nc(CC(C)C)sc1-c1ccc2oc3cc(S(=O)(=O)N[C@H](C(=O)O)C(C)C)ccc3c2c1 [Compound 204, (S)-2-(8-(2-isobutyl-4-methylthiazol-5-yl)dibenzo[b,d]furan-3-sulfonamido)-3-methylbutanoic acid] |
| < 1.5 nM | CC(C)[C@H](NS(=O)(=O)c1ccc2c(c1)oc1ccc(-c3nc4ccc(F)cc4s3)cc12)C(=O)O [Compound 209, (S)-2-(8-(6-fluorobenzo[d]thiazol-2-yl)dibenzo[b,d]furan-3-sulfonamido)-3-methylbutanoic acid] |
| 12 nM | Cc1ccc2nc(-c3ccc4oc5cc(S(=O)(=O)N[C@H](C(=O)O)C(C)C)ccc5c4c3)sc2c1 [Compound 210, (S)-3-methyl-2-(8-(6-methylbenzo[d]thiazol-2-yl)dibenzo[b,d]furan-3-sulfonamido)butanoic acid] |
| 295 nM | CC(C)[C@H](NS(=O)(=O)c1ccc2c(c1)oc1ccc(-c3ccc(-c4ccno4)s3)cc12)C(=O)O [Compound 211, (S)-2-(8-(5-(isoxazol-5-yl)thiophen-2-yl)dibenzo[b,d]furan-3-sulfonamido)-3-methylbutanoic acid] |
| 86 nM | CC(C)[C@H](NS(=O)(=O)c1ccc2c(c1)oc1ccc(-c3ncc(CN4CCN(C)CC4)s3)cc12)C(=O)O [Compound 212, (S)-3-methyl-2-(8-(5-((4-methylpiperazin-1-yl)methyl)thiazol-2-yl)dibenzo[b,d]furan-3-sulfonamido)butanoic acid] |

— patent US20100227859A1, “TRICYCLIC COMPOUNDS AS MATRIX METALLOPROTEINASE INHIBITORS” (priority 2007, published 2010)
